Measurements from US12409179B2 (GENEROS BIOPHARMA LTD., priority 2019, dated 2025).

Assays:
[1] = system: adjuvant-induced arthritis in rats; assay: Embodiment 3: oral Nib1 and methotrexate in adjuvant-induced arthritis in rats (joint score, paw volume, AUC); assay type: in vivo, Lewis rat; details: oral, Tofacitinib 5 mpk, MTX 0.05 mpk, Nib1 1 mpk, Nib1 1 mpk + MTX 0.05 mpk
[2] = system: rat adjuvant-induced arthritis model; assay: Embodiment 2: oral Nib1 and medium-dose methotrexate in rat adjuvant-induced arthritis model (joint score, paw volume, AUC); assay type: in vivo, Lewis rat; details: MTX 0.5 mpk, Nib1 5 mpk, Nib1 5 mpk + MTX 0.5 mpk
[3] = system: rheumatoid arthritis; details: cited from earlier work

In the case of `CN(Cc1cnc2nc(N)nc(N)c2n1)c1ccc(C(=O)N[C@@H](CCC(=O)O)C(=O)O)cc1` [MTX, Methotrexate], the “Area under the curve AUC (ml*day) of changes in paw volume” value ([1]; Embodiment 3) is reported as 19.31 mL·days, the “Clinical scoring of arthritis (sum of the scores of the quadrupedal joints), Average value” (from here on “Clinical scoring of arthritis”) ([1]; day 0) is reported as 0.00 and the “volume of the right hind foot, Average value” (“volume of the right hind foot” below) ([1]; day 0) is reported as 1.30 mL. The “Clinical scoring of arthritis” value ([1]; day 8) was 0.44, the “volume of the right hind foot” value ([1]; day 8) was 1.38 mL and the “Clinical scoring of arthritis” value ([1]; day 11) was 4.33. The “volume of the right hind foot” value ([1]; day 11) was 2.14 mL, the “Clinical scoring of arthritis” value ([1]; day 13) was 7.33 and the “Clinical scoring of arthritis” value ([1]; day 15) was 9.00. The “volume of the right hind foot” value ([1]; day 15) was 2.88 mL, the “Clinical scoring of arthritis” value ([1]; day 18) was 10.22 and the “volume of the right hind foot” value ([1]; day 18) was 3.14 mL. For the same molecule, the “Clinical scoring of arthritis” value ([1]; day 21) was 10.78, the “Clinical scoring of arthritis” value ([1]; day 24) was 10.89 and the “Total area (AUC of changes in paw volume)” value ([2]; Embodiment 2, Tofacitinib 5 mpk, in mL·day) was 29.94. The “Clinical scoring of arthritis” value ([2]; day 0, Tofacitinib 5 mpk) was 0, the “paw volume (right hind foot), Average value” (shortened to “paw volume (right hind foot)”) ([2]; day 0, Tofacitinib 5 mpk) was 1.02 mL and the “Clinical scoring of arthritis” value ([2]; day 7, Tofacitinib 5 mpk) was 0.75. For the same molecule, the “paw volume (right hind foot)” value ([2]; day 7, Tofacitinib 5 mpk) was 1.98 mL, the “Clinical scoring of arthritis” value ([2]; day 13, Tofacitinib 5 mpk) was 1.75 and the “paw volume (right hind foot)” value ([2]; day 13, Tofacitinib 5 mpk) was 2.10 mL. The “Clinical scoring of arthritis” value ([2]; day 15, Tofacitinib 5 mpk) was 5.50, the “paw volume (right hind foot)” value ([2]; day 15, Tofacitinib 5 mpk) was 2.28 mL and the “Clinical scoring of arthritis” value ([2]; day 17, Tofacitinib 5 mpk) was 7.00. The “paw volume (right hind foot)” value ([2]; day 17, Tofacitinib 5 mpk) was 2.43 mL, the “Clinical scoring of arthritis” value ([2]; day 20, Tofacitinib 5 mpk) was 7.50 and the “paw volume (right hind foot)” value ([2]; day 20, Tofacitinib 5 mpk) was 2.48 mL. The “Clinical scoring of arthritis” value ([2]; day 22, Tofacitinib 5 mpk) was 7.63, the “paw volume (right hind foot)” value ([2]; day 22, Tofacitinib 5 mpk) was 2.50 mL and the “Clinical scoring of arthritis” value ([2]; day 24, Tofacitinib 5 mpk) was 7.63. For the same molecule, the “paw volume (right hind foot)” value ([2]; day 24, Tofacitinib 5 mpk) was 2.56 mL, the “Clinical scoring of arthritis” value ([2]; day 27, Tofacitinib 5 mpk) was 7.50 and the “paw volume (right hind foot)” value ([2]; day 27, Tofacitinib 5 mpk) was 2.62 mL. For the same molecule, the “Clinical scoring of arthritis” value ([2]; day 29, Tofacitinib 5 mpk) was 7.63, the “paw volume (right hind foot)” value ([2]; day 29, Tofacitinib 5 mpk) was 2.65 mL and the “Clinical scoring of arthritis” value ([2]; day 31, Tofacitinib 5 mpk) was 7.63. For the same molecule, the “paw volume (right hind foot)” value ([2]; day 31, Tofacitinib 5 mpk) was 2.66 mL, the “Clinical scoring of arthritis” value ([2]; day 34, Tofacitinib 5 mpk) was 7.50 and the “paw volume (right hind foot)” value ([2]; day 34, Tofacitinib 5 mpk) was 1.02 mL. The main side effects ([3]; rheumatoid arthritis therapy) was “liver and gastrointestinal toxicity” and the “patients who stop taking the drug because of side effects” value ([3]; within a year) was “about 50%”.
